Measured values from US20050256034A1, “Dioxolane analogs for improved inter-cellular delivery” (priority 2000, published 2005).

Legend:
[1] = biological target: T1, hENT1 (es) in DU145 cells (Homo sapiens, UniProt Q99808); assay: Cellular uptake assay of 3H-labelled nucleoside, NT inhibitor and self-competition; type: cell-based
T1 construct: functional es-mediated transport (hENT1) in DU145 cells; endogenous in cells; host or cells: DU145 cells
T1 sequence (Q99808 1-456): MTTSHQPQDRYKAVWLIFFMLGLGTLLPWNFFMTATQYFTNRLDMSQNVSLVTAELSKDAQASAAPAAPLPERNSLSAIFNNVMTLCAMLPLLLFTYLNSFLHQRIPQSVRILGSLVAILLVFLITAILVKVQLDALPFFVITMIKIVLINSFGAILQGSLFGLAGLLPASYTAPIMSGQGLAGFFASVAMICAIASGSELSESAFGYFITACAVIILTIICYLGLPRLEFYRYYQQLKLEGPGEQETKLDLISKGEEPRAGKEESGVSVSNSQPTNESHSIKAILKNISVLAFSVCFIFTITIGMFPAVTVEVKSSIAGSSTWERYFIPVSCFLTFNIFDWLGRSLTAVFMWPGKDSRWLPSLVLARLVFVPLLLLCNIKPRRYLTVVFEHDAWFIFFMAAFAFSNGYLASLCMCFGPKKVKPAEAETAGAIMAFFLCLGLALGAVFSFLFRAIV
Method: FIG. 2 Comparative uptake of 10 μM [^3H]troxacitabine (0-240 min) (Panel B) and 10 μM [^3H]D-uridine (0-6 min) (Panel A) in the presence (▴) or absence ( ? ) of the hENT1 inhibitor, 100 nM NBMPP, in DU145 cells.
Cancer Res., 56: 4187-4191.
(FIG. 2A). In contrast, low levels of [^3H]troxacitabine were taken up and uptake was not affected by the presence of NBMPR (FIG. 2B).
DU145 cells: This experiment is designed to show whether [^3H]L-troxacitabine (10 μM) is taken up by DU145 cells and if the rate of uptake is affected by the addition of high concentrations (1 mM) of non-radioactive troxacitabine.

hCNT3 = biological target: T2, hCNT3 (Homo sapiens, UniProt Q9HAS3); assay: Inhibition of [3H]uridine uptake by cib-activity in differentiated HL-60 cells; type: cell-based; settings: 100-fold non-radioactive excess
T2 construct: Troxacitabine uptake by cib-activity (hCNT3) in differentiated HL-60 cells; endogenous in cells; host or cells: differentiated HL-60 cells
T2 sequence (Q9HAS3 1-691): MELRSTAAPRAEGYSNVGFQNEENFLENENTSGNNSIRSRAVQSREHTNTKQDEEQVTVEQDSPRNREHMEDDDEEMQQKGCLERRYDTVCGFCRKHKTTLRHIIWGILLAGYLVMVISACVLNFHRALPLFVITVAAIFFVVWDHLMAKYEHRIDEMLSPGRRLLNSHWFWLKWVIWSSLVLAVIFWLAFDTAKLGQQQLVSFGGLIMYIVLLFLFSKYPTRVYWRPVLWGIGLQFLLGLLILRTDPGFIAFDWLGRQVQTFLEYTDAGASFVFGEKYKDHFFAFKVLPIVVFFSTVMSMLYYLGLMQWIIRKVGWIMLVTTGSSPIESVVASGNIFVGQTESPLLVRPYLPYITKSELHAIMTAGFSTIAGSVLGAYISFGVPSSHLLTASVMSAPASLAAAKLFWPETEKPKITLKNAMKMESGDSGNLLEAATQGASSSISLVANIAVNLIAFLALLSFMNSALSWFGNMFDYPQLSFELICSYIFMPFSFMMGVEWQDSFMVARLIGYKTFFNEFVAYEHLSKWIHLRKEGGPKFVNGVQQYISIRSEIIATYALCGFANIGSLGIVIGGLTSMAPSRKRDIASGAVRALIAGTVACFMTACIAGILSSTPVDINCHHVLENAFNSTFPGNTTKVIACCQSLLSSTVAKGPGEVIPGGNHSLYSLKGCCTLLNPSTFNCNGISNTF

For `Nc1ccn([C@@H]2CO[C@H](CO)O2)c(=O)n1` [Troxacitabine, troxacitabine], the “effect of non-radioactive troxacitabine (1 mM) on uptake” value ([1]; 10 μM labelled) was “no significant effect”, the “effect of NBMPR on uptake” value ([1]; 10 μM, 0-240 min, 100 nM NBMPR) was “not affected” and the rate of uptake ([1]; 10 μM, short (0-30 s) and prolonged exposures (0-4 h)) was “very slow”. For the same molecule, the “effect on [3H]uridine uptake by hCNT3” value (hCNT3) was “no effect on uridine uptake”.
